Patent publication US20250275953A1, “VODOBATINIB FOR REDUCING PROGRESSION OF PARKINSON'S DISEASE” (Sun Pharma Advanced Research Company Ltd., priority 2022, published 2025)
Like-named read-outs stand apart in the source and are kept apart here.

Key:
[1] = Exposure on transition from capsule to powder, phase 2 study in early PD; format: in vivo, human; details: on average
Protocol: A phase 2, randomized, double-blind, placebo-controlled study of vodobatinib in approximately 504 subjects with early Parkinson's disease is ongoing. The subjects are being administered a low dose (96 mg capsule or 192 mg powder of vodobatinib) or high dose (192 mg capsule or 384 mg powder of vodobatinib). The subjects are initially administered the capsule and then transitioned to the powder. […] The objective of the study is to determine if vodobatinib reduces the rate of progression of early-stage Parkinson's disease over 40 weeks, as defined by the sum of the MDS-UPDRS (Movement Disorder Society-Unified Parkinson's Disease Rating Scale) Parts 2 and 3 scores.

[2] = Plasma pharmacokinetics, 7 once-daily oral doses, healthy volunteers; format: in vivo, human; details: for Cmax / Tmax / AUC(0-t): male, human, plasma, oral
Protocol: After 28 days of screening, the subjects were studied in sequential cohorts of 6 subjects each. The study was conducted for 17 days. […] After the dose, subjects continued to fast for additional 4 hours, water was allowed ad libitum with the exception of 1 hour prior and 1-hour post dose.
The plasma and CSF samples were analyzed, by validated LC/MS-MS methods. PK analysis was conducted based on PK/PP Population: Cmax, AUC0-t, AUC0-24, AUC0-∞, Tmax, Cavg, CL/F, Cmin, t1/2, Kel, Vd (V/F; Vd/F), and Vss/F. Model-independent plasma PK parameters (Cmax, Tmax, t1/2, AUC0-t, AUC0-24, AUC0-∞, Cavg, CL/F, Vss/F, Vd/F), after the first dose (Day 1) and last dose (Day 7), Cmin on Days 2-7) was listed by subject and summarized by study cohort. In addition to the descriptive statistics listed above, geometric means was reported for the pivotal PK endpoints (CL/F, Vss/F, Vd/F, Cmin, Cavg, AUC0-t, AUC0-24, AUC0-∞, and Cmax). For CSF, PK parameters (Cmax, Tmax, t1/2, AUC0-t, AUC0-24, Cmin, Cavg, CL/F, Vss/F) was listed by subject and summarized by cohort. Ratios of CSF: plasma concentration at each time point was listed by subject and summarized by study cohort.
Forty-one healthy adult male volunteers aged 18 to 45 with body mass indexes (BMI)≥18 to ≤30 Kg/m^2 and total body weight >50 kg (110 lb) were screened in order to enroll 19 subjects with an average age of 34.2 years (range 21.5-45.6 years) into this study Six participants were randomly assigned to the 48 and 192 mg cohorts, and seven participants were assigned to the 384 mg cohort. After an overnight fast, participants received once daily doses of vodobatinib as capsules for 7 days. Serial PK blood samples to measure vodobatinib plasma concentrations were collected at pre-dose and at 0.25, 0.5, 1, 1.5, 2, 2.5, 3, 4, 6, 8, 12, 16 and 24 h post-dose after the first dose on Day 1 and the last dose on day 7. Additional PK samples prior to the morning doses were taken on Days 3-6. On the morning of Day 7, prior to dosing, an indwelling intrathecal catheter was inserted in the lumbar region (L3-L5). Serial CSF samples were collected through the catheter connected via peristaltic pump to a fraction collector. At each designated CSF collection time point, 8 mL of CSF was collected at a flow rate of 0.5 mL/min over a 16-min period at pre-dose, and 0.5, 1.0, 1.5, 2, 2.5, 3, 4, 6, 8, 12 and 24 h post-dose. The first 2 mL of CSF was discarded, and the remaining 6 mL was used for the vodobatinib assay. The occurrence of treatment-emergent adverse events (TEAEs) and serious AEs (SAEs) reported through the completion of study were collected.

[3] = 48 mg, Day 7, plasma, healthy volunteers
[4] = 192 mg, Day 1, plasma, healthy volunteers
[5] = 192 mg, Day 7, plasma, healthy volunteers
[6] = 384 mg, Day 1, plasma, healthy volunteers
[7] = 384 mg, Day 7, plasma, healthy volunteers

Cc1ccc(C(=O)NNC(=O)c2c(C)cccc2Cl)cc1C#Cc1cnc2ccccc2c1 [N′-(2-chloro-6-methylbenzoyl)-4-methyl-3-[2-(3-quinolyl)ethynyl]-benzohydrazide]
increase in exposure, capsule to powder (96 to 192 mg or 192 to 384 mg) [1]: approximately 1.4 fold | AUC0-24 GM ([2]; 48 mg, Day 1, plasma, healthy volunteers): 8691.6 ng·h/mL | AUC0-24 GM [2, 3]: 10346.9 ng·h/mL | Cmax GM [2, 3]: 1241.4 ng/mL | AUC0-24 GM [2, 4]: 33425.8 ng·h/mL | Cmax GM [2, 4]: 3550.7 ng/mL | AUC0-24 GM [2, 5]: 39138.2 ng·h/mL | Cmax GM [2, 5]: 5020.9 ng/mL | AUC0-24 GM [2, 6]: 35536.5 ng·h/mL | Cmax GM [2, 6]: 5387.1 ng/mL | AUC0-24 GM [2, 7]: 42124.5 ng·h/mL | Cmax GM [2, 7]: 6648.7 ng/mL | time within which peak plasma concentrations (Cmax) achieved ([2]; Day 1, across 48-384 mg cohorts): 2.8 to 4.0 h | Cmax ([2]; 48 mg, Day 1, plasma, Healthy Subjects, Table 10, read-out: Cmax Mean): 1380 ng/mL | Tmax ([2]; 48 mg, Day 1, plasma, Healthy Subjects, Table 10, read-out: Tmax median): 2.8 h | AUC(0-t) ([2]; 48 mg, Day 1, plasma, Healthy Subjects, read-out: AUC0-24 Mean): 8870 ng·h/mL | AUC(0-t) ([2]; 48 mg, Day 1, plasma, healthy volunteers, read-out: AUC0-24 AM): 8870 ng·h/mL | AUC(0-t) ([2]; 48 mg, Day 1, plasma, healthy volunteers, read-out: AUC0-24 GM): 8690 ng·h/mL | AUC(0-t) ([2]; 48 mg, Day 1, plasma, healthy volunteers, read-out: AUC0-24 Median): 8880 ng·h/mL | AUC(0-t) ([2]; 48 mg, Day 1, plasma, healthy volunteers, read-out: AUC0-24 Min, Max): 5850 to 10800 ng·h/mL | Cmax ([2]; 48 mg, Day 1, plasma, healthy volunteers, read-out: Cmax AM): 1380 ng/mL | Cmax ([2]; 48 mg, Day 1, plasma, healthy volunteers, read-out: Cmax GM): 1330 ng/mL | Cmax ([2]; 48 mg, Day 1, plasma, healthy volunteers, read-out: Cmax Median): 1220 ng/mL | Cmax ([2]; 48 mg, Day 1, plasma, healthy volunteers, read-out: Cmax Min, Max): 1010 to 2000 ng/mL | Tmax ([2]; 48 mg, Day 1, plasma, healthy volunteers, read-out: Tmax Median): 2.8 h | Tmax ([2]; 48 mg, Day 1, plasma, healthy volunteers, read-out: Tmax Min, Max): 1.5 to 4 h | Cmax ([2]; 48 mg, Day 7, plasma, Healthy Subjects, Table 10, read-out: Cmax Mean): 1400 ng/mL | Tmax ([2]; 48 mg, Day 7, plasma, Healthy Subjects, Table 10, read-out: Tmax median (range)): 4 h | AUC(0-t) ([2]; 48 mg, Day 7, plasma, Healthy Subjects, read-out: AUC0-24 Mean): 12900 ng·h/mL | AUC(0-t) ([2]; 48 mg, Day 7, plasma, healthy volunteers, read-out: AUC0-24 AM): 12900 ng·h/mL | AUC(0-t) ([2]; 48 mg, Day 7, plasma, healthy volunteers, read-out: AUC0-24 GM): 10300 ng·h/mL | AUC(0-t) ([2]; 48 mg, Day 7, plasma, healthy volunteers, read-out: AUC0-24 Median): 11000 ng·h/mL | AUC(0-t) ([2]; 48 mg, Day 7, plasma, healthy volunteers, read-out: AUC0-24 Min, Max): 2970 to 29000 ng·h/mL | Cmax ([2]; 48 mg, Day 7, plasma, healthy volunteers, read-out: Cmax AM): 1400 ng/mL | Cmax ([2]; 48 mg, Day 7, plasma, healthy volunteers, read-out: Cmax GM): 1240 ng/mL | Cmax ([2]; 48 mg, Day 7, plasma, healthy volunteers, read-out: Cmax Median): 1340 ng/mL | Cmax ([2]; 48 mg, Day 7, plasma, healthy volunteers, read-out: Cmax Min, Max): 421 to 2380 ng/mL | Tmax ([2]; 48 mg, Day 7, plasma, healthy volunteers, read-out: Tmax Median): 4 h | Tmax ([2]; 48 mg, Day 7, plasma, healthy volunteers, read-out: Tmax Min, Max): 1.5 to 12 h | Cmax ([2]; 192 mg, Day 1, plasma, Healthy Subjects, Table 10, read-out: Cmax Mean): 3780 ng/mL | Tmax ([2]; 192 mg, Day 1, plasma, Healthy Subjects, Table 10, read-out: Tmax median): 3.5 h | AUC(0-t) ([2]; 192 mg, Day 1, plasma, Healthy Subjects, read-out: AUC0-24 Mean): 34500 ng·h/mL | AUC(0-t) ([2]; 192 mg, Day 1, plasma, healthy volunteers, read-out: AUC0-24 AM): 34500 ng·h/mL | AUC(0-t) ([2]; 192 mg, Day 1, plasma, healthy volunteers, read-out: AUC0-24 GM): 33400 ng·h/mL | AUC(0-t) ([2]; 192 mg, Day 1, plasma, healthy volunteers, read-out: AUC0-24 Median): 34700 ng·h/mL
